Laboratory results from ChEMBL document CHEMBL1151339, “Antitumor agents from bohemic acid complex, III. The isolation of marcellomycin, musettamycin, rudolphomycin, mimimycin, collinemycin, alcindoromycin, and bohemamine” (J Nat Prod, 1980).
≈ marks a conversion by molar mass, not a printed value.

Assays:
L1210 [1] = assay: Antitumor activity against mouse L1210 cells xenografted in BDF1 mouse at 0.4 mg/kg, ip relative to control; format: functional; settings: route intraperitoneal
Mus musculus [2] = assay: Toxicity in BDF1 mouse xenografted with mouse B16 cells assessed as survival at 0.2 mg/kg after 5 days; format: organism-based; set-up: dose 0.2 mg/kg
B16 [3] = assay: Antitumor activity against mouse B16 cells xenografted in BDF1 mouse assessed as change in tumor average weight at 3.2 mg/kg; format: functional
Candida albicans = assay: Antifungal activity against Candida albicans A-9540 by 2-fold tube dilution method; format: functional
Mus musculus [4] = assay: Toxicity in BDF1 mouse xenografted with mouse B16 cells assessed as survival at 1.6 mg/kg after 5 days; format: organism-based; set-up: dose 1.6 mg/kg
B16 [5] = assay: Antitumor activity against mouse B16 cells xenografted in BDF1 mouse assessed as median survival time at 1.6 mg/kg; format: functional
B16 [6] = assay: Antitumor activity against mouse B16 cells xenografted in BDF1 mouse assessed as change in tumor average weight at 0.025 mg/kg; format: functional
L1210 [7] = assay: Antitumor activity against mouse L1210 cells xenografted in BDF1 mouse assessed as median survival time at 0.8 mg/kg, ip; format: functional; settings: route intraperitoneal
B16 [8] = assay: Antitumor activity against mouse B16 cells xenografted in BDF1 mouse assessed as median survival time at 0.025 mg/kg; format: functional
B16 [9] = assay: Antitumor activity against mouse B16 cells xenografted in BDF1 mouse assessed as change in tumor average weight at 0.05 mg/kg; format: functional
Microsporum canis = assay: Antifungal activity against Microsporum canis A-9872 by 2-fold tube dilution method; format: functional
Pichia kudriavzevii = assay: Antifungal activity against Candida krusei A15052 by 2-fold tube dilution method; format: functional
L1210 [10] = assay: Antitumor activity against mouse L1210 cells xenografted in BDF1 mouse assessed as change in tumor average weight at 3.2 mg/kg, ip; format: functional; settings: route intraperitoneal
B16 [11] = assay: Antitumor activity against mouse B16 cells xenografted in BDF1 mouse at 0.2 mg/kg relative to control; format: functional
B16 [12] = assay: Antitumor activity against mouse B16 cells xenografted in BDF1 mouse at 0.05 mg/kg relative to control; format: functional
Klebsiella pneumoniae = assay: Antibacterial activity against Klebsiella pneumoniae A15130 by 2-fold tube dilution method; format: functional
Staphylococcus aureus = assay: Antibacterial activity against Staphylococcus aureus A-9497 by 2-fold tube dilution method; format: functional
Mus musculus [13] = assay: Toxicity in BDF1 mouse xenografted with mouse B16 cells assessed as survival at 0.8 mg/kg after 5 days; format: organism-based; set-up: dose 0.8 mg/kg
B16 [14] = assay: Antitumor activity against mouse B16 cells xenografted in BDF1 mouse assessed as median survival time at 0.8 mg/kg; format: functional
L1210 [15] = assay: Antitumor activity against mouse L1210 cells xenografted in BDF1 mouse at 1.6 mg/kg, ip relative to control; format: functional; settings: route intraperitoneal
Proteus vulgaris = assay: Antibacterial activity against Proteus vulgaris A21559 by 2-fold tube dilution method; format: functional
B16 [16] = assay: Antitumor activity against mouse B16 cells xenografted in BDF1 mouse at 0.025 mg/kg relative to control; format: functional
L1210 [17] = assay: Antitumor activity against mouse L1210 cells xenografted in BDF1 mouse assessed as change in tumor average weight at 1.6 mg/kg, ip; format: functional; settings: route intraperitoneal
Streptococcus pyogenes = assay: Antibacterial activity against Streptococcus pyogenes A-9604 by 2-fold tube dilution method; format: functional
Mus musculus [18] = assay: Toxicity in BDF1 mouse xenografted with mouse L1210 cells assessed as survival at 0.8 mg/kg, ip after 5 days; format: organism-based; set-up: dose 0.8 mg/kg, route intraperitoneal; settings: in vivo, 120 h
Mus musculus [19] = assay: Toxicity in BDF1 mouse xenografted with mouse B16 cells assessed as survival at 0.4 mg/kg after 5 days; format: organism-based; set-up: dose 0.4 mg/kg
Mus musculus [20] = assay: Toxicity in BDF1 mouse xenografted with mouse L1210 cells assessed as survival at 0.4 mg/kg, ip after 5 days; format: organism-based; set-up: dose 0.4 mg/kg, route intraperitoneal; settings: in vivo, 120 h
B16 [21] = assay: Antitumor activity against mouse B16 cells xenografted in BDF1 mouse assessed as change in tumor average weight at 0.8 mg/kg; format: functional
L1210 [22] = assay: Antitumor activity against mouse L1210 cells xenografted in BDF1 mouse assessed as median survival time at 1.6 mg/kg, ip; format: functional; settings: route intraperitoneal
Staphylococcus = assay: Antibacterial activity against penicillin resistant Staphylococcus A-9606 by 2-fold tube dilution method; format: functional
B16 [23] = assay: Antitumor activity against mouse B16 cells xenografted in BDF1 mouse assessed as change in tumor average weight at 1.6 mg/kg; format: functional
L1210 [24] = assay: Antitumor activity against mouse L1210 cells xenografted in BDF1 mouse at 3.2 mg/kg, ip relative to control; format: functional; settings: route intraperitoneal
B16 [25] = assay: Antitumor activity against mouse B16 cells xenografted in BDF1 mouse assessed as change in tumor average weight at 0.1 mg/kg; format: functional
B16 [26] = assay: Antitumor activity against mouse B16 cells xenografted in BDF1 mouse assessed as median survival time at 3.2 mg/kg; format: functional
Enterobacter cloacae = assay: Antibacterial activity against Enterobacter cloacae A-9659 by 2-fold tube dilution method; format: functional
B16 [27] = assay: Antitumor activity against mouse B16 cells xenografted in BDF1 mouse assessed as median survival time at 0.2 mg/kg; format: functional
B16 [28] = assay: Antitumor activity against mouse B16 cells xenografted in BDF1 mouse assessed as median survival time at 0.4 mg/kg; format: functional
L1210 [29] = assay: Antitumor activity against mouse L1210 cells xenografted in BDF1 mouse assessed as median survival time at 3.2 mg/kg, ip; format: functional; settings: route intraperitoneal
B16 [30] = assay: Antitumor activity against mouse B16 cells xenografted in BDF1 mouse at 0.4 mg/kg relative to control; format: functional
Candida tropicalis = assay: Antifungal activity against Candida tropicalis A15051 by 2-fold tube dilution method; format: functional
B16 [31] = assay: Antitumor activity against mouse B16 cells xenografted in BDF1 mouse at 1.6 mg/kg relative to control; format: functional
Mus musculus [32] = assay: Toxicity in BDF1 mouse xenografted with mouse B16 cells assessed as survival at 0.1 mg/kg after 5 days; format: organism-based; set-up: dose 0.1 mg/kg
B16 [33] = assay: Antitumor activity against mouse B16 cells xenografted in BDF1 mouse at 0.1 mg/kg relative to control; format: functional
Serratia marcescens = assay: Antibacterial activity against Serratia marcescens A20019 by 2-fold tube dilution method; format: functional
Pseudomonas aeruginosa = assay: Antibacterial activity against Pseudomonas aeruginosa A-9843A by 2-fold tube dilution method; format: functional
B16 [34] = assay: Antitumor activity against mouse B16 cells xenografted in BDF1 mouse at 0.8 mg/kg relative to control; format: functional
B16 [35] = assay: Antitumor activity against mouse B16 cells xenografted in BDF1 mouse assessed as change in tumor average weight at 0.4 mg/kg; format: functional
Proteus mirabilis = assay: Antibacterial activity against Proteus mirabilis A-9900 by 2-fold tube dilution method; format: functional
B16 [36] = assay: Antitumor activity against mouse B16 cells xenografted in BDF1 mouse assessed as median survival time at 0.05 mg/kg; format: functional
L1210 [37] = assay: Antitumor activity against mouse L1210 cells xenografted in BDF1 mouse assessed as change in tumor average weight at 0.4 mg/kg, ip; format: functional; settings: route intraperitoneal
L1210 [38] = assay: Antitumor activity against mouse L1210 cells xenografted in BDF1 mouse assessed as change in tumor average weight at 0.8 mg/kg, ip; format: functional; settings: route intraperitoneal

With `CC[C@@]1(O)C[C@H](O[C@H]2C[C@H](N(C)C)[C@H](O[C@H]3C[C@H](O)[C@H](O[C@@H]4O[C@@H](C)C(=O)C=C4N)[C@@H](C)O3)[C@@H](C)O2)c2c(cc3c(c2O)C(=O)c2c(O)ccc(O)c2C3=O)[C@H]1C(=O)OC` [RUDOLPHOMYCIN] the T/C (L1210 [1]) was 107%, the AC50 (Mus musculus [2]) was “Non-toxic” and the Activity (B16 [3]) was -0.3 g. The MIC (Candida albicans) was over 16 µg/mL, the AC50 (Mus musculus [4]) was “Non-toxic” and the Activity (B16 [5]) was 32 days. The Activity (B16 [6]) was -0.9 g, the Activity (L1210 [7]) was 9 days and the Activity (B16 [8]) was 22.5 days. For the same compound, the Activity (B16 [9]) was -0.8 g, the MIC (Microsporum canis) was over 16 µg/mL and the MIC (Pichia kudriavzevii) was over 16 µg/mL. The Activity (L1210 [10]) was -2.2 g, the T/C (B16 [11]) was 130% and the T/C (B16 [12]) was 110%. The MIC (Klebsiella pneumoniae) was over 125 µg/mL, the MIC (Staphylococcus aureus) was 1 µg/mL (≈ 1.19 µM) and the AC50 (Mus musculus [13]) was “Non-toxic”. For the same compound, the Activity (B16 [14]) was 29 days, the T/C (L1210 [15]) was 133% and the MIC (Proteus vulgaris) was over 125 µg/mL. The T/C (B16 [16]) was 113%, the Activity (L1210 [17]) was -1.2 g and the MIC (Streptococcus pyogenes) was 0.25 µg/mL (≈ 0.297 µM). The Activity (Mus musculus [18]) was “Non-toxic”, the AC50 (Mus musculus [19]) was “Non-toxic” and the Activity (Mus musculus [20]) was “Non-toxic”. For the same compound, the Activity (B16 [21]) was -0.2 g, the Activity (L1210 [22]) was 10 days and the MIC (Staphylococcus) was 32 µg/mL (≈ 38.1 µM). The Activity (B16 [23]) was -2.5 g, the T/C (L1210 [24]) was 107% and the Activity (B16 [25]) was -0.4 g. The Activity (B16 [26]) was 23 days, the MIC (Enterobacter cloacae) was over 125 µg/mL and the Activity (B16 [27]) was 26 days. It also gave an Activity (B16 [28]) of 26.5 days, an Activity (L1210 [29]) of 8 days and a T/C (B16 [30]) of 133%. The MIC (Candida tropicalis) was over 16 µg/mL, the T/C (B16 [31]) was 160% and the AC50 (Mus musculus [32]) was “Non-toxic”. It also gave a T/C (B16 [33]) of 138%, an MIC (Serratia marcescens) of over 125 µg/mL and an MIC (Pseudomonas aeruginosa) of over 125 µg/mL. For the same compound, the T/C (B16 [34]) was 145%, the Activity (B16 [35]) was -0.8 g and the MIC (Proteus mirabilis) was over 125 µg/mL. For the same compound, the Activity (B16 [36]) was 22 days, the Activity (L1210 [37]) was 0.9 g and the Activity (L1210 [38]) was -1.6 g.
